Like-named read-outs stand apart in the source and are kept apart here.
Experiments:
FGFR4 = FGFR4 (Homo sapiens (Human), UniProt P22455); assay: FGFR Enzymatic Assay (FRET, peptide phosphorylation), FGFR4
FGFR3 = FGFR3 (Homo sapiens (Human), UniProt P22607); assay: FGFR Enzymatic Assay (FRET, peptide phosphorylation), FGFR3; type: biochemical; settings: pre-incubated for 4 hours; ATP 140 μM
FGFR1 = FGFR1 (Homo sapiens (Human), UniProt P11362); assay: FGFR Enzymatic Assay (FRET, peptide phosphorylation), FGFR1; settings: read-out: FGFR1 IC50; pre-incubated for 4 hours; ATP 210 uM
Chain of FGFR1 (P11362 22-822): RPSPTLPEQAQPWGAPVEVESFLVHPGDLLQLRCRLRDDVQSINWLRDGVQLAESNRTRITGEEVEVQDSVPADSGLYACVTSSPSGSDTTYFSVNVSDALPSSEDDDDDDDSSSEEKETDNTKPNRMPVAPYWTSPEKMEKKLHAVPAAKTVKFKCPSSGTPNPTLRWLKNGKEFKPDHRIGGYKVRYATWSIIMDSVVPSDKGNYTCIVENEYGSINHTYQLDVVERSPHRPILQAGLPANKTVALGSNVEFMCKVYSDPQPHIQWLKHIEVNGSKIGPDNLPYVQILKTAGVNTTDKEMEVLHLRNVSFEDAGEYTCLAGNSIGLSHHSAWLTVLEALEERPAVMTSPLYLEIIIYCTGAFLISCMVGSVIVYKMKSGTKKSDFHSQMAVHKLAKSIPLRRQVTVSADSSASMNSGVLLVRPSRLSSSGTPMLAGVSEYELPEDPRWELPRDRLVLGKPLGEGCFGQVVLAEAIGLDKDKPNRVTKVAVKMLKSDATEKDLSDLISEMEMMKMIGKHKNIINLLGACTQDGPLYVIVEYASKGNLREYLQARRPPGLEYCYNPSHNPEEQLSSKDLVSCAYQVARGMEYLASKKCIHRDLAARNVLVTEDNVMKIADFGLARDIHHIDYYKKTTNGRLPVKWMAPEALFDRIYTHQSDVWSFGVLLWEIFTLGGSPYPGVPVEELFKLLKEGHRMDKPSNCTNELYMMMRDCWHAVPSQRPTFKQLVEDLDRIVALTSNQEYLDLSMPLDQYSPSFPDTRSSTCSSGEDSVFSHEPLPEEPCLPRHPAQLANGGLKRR

FGFR2 = FGFR2 (Homo sapiens (Human), UniProt P21802); assay: FGFR Enzymatic Assay (FRET, peptide phosphorylation), FGFR2; settings: read-out: FGFR2 IC50; pre-incubated for 4 hours; ATP 100 uM
Chain of FGFR2 (P21802 22-821): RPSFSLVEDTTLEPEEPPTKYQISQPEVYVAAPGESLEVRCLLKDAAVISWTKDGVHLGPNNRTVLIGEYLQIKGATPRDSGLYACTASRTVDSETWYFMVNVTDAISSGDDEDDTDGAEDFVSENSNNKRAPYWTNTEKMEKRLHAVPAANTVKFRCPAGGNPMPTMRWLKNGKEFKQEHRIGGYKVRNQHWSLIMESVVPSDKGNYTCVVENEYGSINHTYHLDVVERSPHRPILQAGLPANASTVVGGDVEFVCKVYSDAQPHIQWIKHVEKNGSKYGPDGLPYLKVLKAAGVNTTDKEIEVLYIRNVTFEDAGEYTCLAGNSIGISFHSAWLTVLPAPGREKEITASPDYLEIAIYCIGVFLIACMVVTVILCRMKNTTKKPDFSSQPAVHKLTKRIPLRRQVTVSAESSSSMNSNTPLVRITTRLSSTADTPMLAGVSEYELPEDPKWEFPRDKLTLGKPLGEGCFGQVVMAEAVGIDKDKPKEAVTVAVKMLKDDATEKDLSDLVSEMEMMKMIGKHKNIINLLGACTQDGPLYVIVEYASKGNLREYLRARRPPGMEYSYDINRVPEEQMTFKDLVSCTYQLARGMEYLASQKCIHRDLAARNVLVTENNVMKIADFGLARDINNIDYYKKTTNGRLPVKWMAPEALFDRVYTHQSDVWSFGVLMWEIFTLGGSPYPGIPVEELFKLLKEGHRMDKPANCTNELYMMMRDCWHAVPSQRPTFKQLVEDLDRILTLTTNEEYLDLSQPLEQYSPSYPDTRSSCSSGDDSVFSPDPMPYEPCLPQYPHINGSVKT

[1] = read-out: FGFR4 IC50, pre-incubated for 4 hours, ATP 600 uM

Chain of FGFR4 (P22455 22-802): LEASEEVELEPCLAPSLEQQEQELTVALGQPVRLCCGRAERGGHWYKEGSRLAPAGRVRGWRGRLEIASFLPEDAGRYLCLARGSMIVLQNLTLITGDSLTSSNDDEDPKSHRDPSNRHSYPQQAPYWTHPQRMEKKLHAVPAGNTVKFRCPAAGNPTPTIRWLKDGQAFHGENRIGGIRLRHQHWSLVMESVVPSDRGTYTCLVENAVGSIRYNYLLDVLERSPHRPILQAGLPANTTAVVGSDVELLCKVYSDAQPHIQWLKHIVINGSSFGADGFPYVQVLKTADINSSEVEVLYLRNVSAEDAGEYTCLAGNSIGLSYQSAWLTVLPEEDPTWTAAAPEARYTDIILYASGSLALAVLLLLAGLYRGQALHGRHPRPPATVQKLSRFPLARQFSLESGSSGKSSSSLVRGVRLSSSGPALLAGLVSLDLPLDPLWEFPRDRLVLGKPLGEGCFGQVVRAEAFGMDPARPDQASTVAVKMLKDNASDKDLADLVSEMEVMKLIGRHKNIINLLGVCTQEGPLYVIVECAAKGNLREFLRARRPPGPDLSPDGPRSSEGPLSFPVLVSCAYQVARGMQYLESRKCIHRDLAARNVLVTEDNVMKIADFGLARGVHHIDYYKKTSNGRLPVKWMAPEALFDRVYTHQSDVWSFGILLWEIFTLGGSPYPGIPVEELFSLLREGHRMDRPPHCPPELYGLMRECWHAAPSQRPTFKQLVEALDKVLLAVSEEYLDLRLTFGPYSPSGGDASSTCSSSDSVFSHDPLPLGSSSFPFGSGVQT
Chain of FGFR3 (P22607 23-806): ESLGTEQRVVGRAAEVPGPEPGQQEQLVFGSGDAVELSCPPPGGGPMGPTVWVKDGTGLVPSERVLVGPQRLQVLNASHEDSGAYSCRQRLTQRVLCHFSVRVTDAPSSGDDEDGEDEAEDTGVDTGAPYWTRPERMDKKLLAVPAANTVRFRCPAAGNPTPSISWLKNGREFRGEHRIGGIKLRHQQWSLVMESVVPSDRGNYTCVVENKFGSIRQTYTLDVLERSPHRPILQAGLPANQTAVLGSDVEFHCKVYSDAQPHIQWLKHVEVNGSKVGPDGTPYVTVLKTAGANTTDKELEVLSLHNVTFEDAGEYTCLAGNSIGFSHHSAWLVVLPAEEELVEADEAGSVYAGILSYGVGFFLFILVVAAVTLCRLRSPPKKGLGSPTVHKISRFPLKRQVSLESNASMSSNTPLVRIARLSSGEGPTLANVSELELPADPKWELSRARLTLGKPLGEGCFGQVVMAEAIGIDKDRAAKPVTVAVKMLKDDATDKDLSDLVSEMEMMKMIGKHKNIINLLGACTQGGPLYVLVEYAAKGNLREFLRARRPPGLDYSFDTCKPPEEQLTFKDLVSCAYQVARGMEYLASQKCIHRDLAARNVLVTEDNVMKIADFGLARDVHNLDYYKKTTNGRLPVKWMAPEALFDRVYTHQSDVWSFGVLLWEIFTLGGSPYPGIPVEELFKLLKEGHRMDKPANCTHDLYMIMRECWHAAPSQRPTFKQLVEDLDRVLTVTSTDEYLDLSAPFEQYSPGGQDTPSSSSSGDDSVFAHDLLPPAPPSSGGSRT

| IC50 (FGFR4; read-out: FGFR4 IC50, pre-incubated for 5 to 10 minutes, ATP 600 uM) [nM] | IC50 (FGFR4; [1]) [nM] | IC50 (FGFR3) [nM] | IC50 (FGFR1) [nM] | IC50 (FGFR2) [nM] | IC50 (FGFR4) [nM] | Compound |
| --- | --- | --- | --- | --- | --- | --- |
| < 10 | < 10 |  |  |  |  | C=CC(=O)NCc1cc2c(cn1)CN(c1c(F)c(OC)cc(OC)c1F)C(=O)C21CC1 [Example 1, N-{[2′-(2,6-difluoro-3,5-dimethoxyphenyl)-3′-oxo-2′,3′-dihydro-1′H-spiro[cyclopropane-1,4′-[2,7]naphthyridin]-6′-yl]methyl}acrylamide] |
|  | < 10 | > 200 | > 200 | > 200 |  | C=CC(=O)NCc1cc2c(cn1)CN(c1c(F)c(OC)cc(OC)c1F)C(=O)N2CC [Example 2, N-((3-(2,6-difluoro-3,5-dimethoxyphenyl)-1-ethyl-2-oxo-1,2,3,4-tetrahydropyrido[4,3-d]pyrimidin-7-yl)methyl)acrylamide] |
|  |  | > 200 | > 200 | > 200 | 10 to 30 | C=CC(=O)NCc1cc2c(cn1)CN(c1c(F)c(OC)cc(OC)c1F)C(=O)N2c1cccnc1 [Example 3, N-((3-(2,6-difluoro-3,5-dimethoxyphenyl)-2-oxo-1-(pyridin-3-yl)-1,2,3,4-tetrahydropyrido[4,3-d]pyrimidin-7-yl)methyl)acrylamide] |
|  |  | > 200 | > 200 | > 200 | 10 to 30 | C=CC(=O)NCc1ncc2c(n1)C1(CC1)C(=O)N(c1c(F)c(OC)cc(OC)c1F)C2 [Example 4, N-((6′-(2,6-difluoro-3,5-dimethoxyphenyl)-7′-oxo-6′,7′-dihydro-5′H-spiro[cyclopropane-1,8′-pyrido[4,3-d]pyrimidine]-2′-yl)methyl)acrylamide] |
|  | < 10 | > 200 | > 200 | > 200 |  | C=CC(=O)NCc1cc2c(cn1)CN(c1c(F)c(OC)cc(OC)c1F)C(=O)C21CCCC1 [Example 5, N-((2′-(2,6-difluoro-3,5-dimethoxyphenyl)-3′-oxo-2′,3′-dihydro-1′H-spiro[cyclopentane-1,4′-[2,7]naphthyridine]-6′-yl)methyl)acrylamide] |
|  |  | > 200 | > 200 | > 200 | 10 to 30 | C=CC(=O)NCc1cc2c(cn1)CN(c1c(F)c(OC)cc(OC)c1F)C(=O)N2c1ccn(C)n1 [Example 7, N-((3-(2,6-difluoro-3,5-dimethoxyphenyl)-1-(1-methyl-1H-pyrazol-3-yl)-2-oxo-1,2,3,4-tetrahydropyrido[4,3-d]pyrimidin-7-yl)methyl)acrylamide] |
|  | < 10 | > 200 | > 200 | > 200 |  | C=CC(=O)NCc1cc2c(cn1)CN(c1c(F)c(OC)cc(OC)c1F)C(=O)N2[C@H]1CCOC1 [Example 8, (S)—N-((3-(2,6-difluoro-3,5-dimethoxyphenyl)-2-oxo-1-(tetrahydrofuran-3-yl)-1,2,3,4-tetrahydropyrido[4,3-d]pyrimidin-7-yl)methyl)acrylamide] |
|  |  | > 200 | > 200 | > 200 | 10 to 30 | C=CC(=O)NCc1cc2c(cn1)CN(c1c(F)c(OC)cc(OC)c1F)C(=O)N2C1CC(F)(F)C1 [Example 9, N-((3-(2,6-difluoro-3,5-dimethoxyphenyl)-1-(3,3-difluorocyclobutyl)-2-oxo-1,2,3,4-tetrahydropyrido[4,3-d]pyrimidin-7-yl)methyl)acrylamide] |
|  |  | > 200 | > 200 | > 200 | 10 to 30 | C=CC(=O)NCc1cc2c(cn1)CN(c1c(F)c(OC)cc(OC)c1F)C(=O)N2C1CC1 [Example 10, N-((1-cyclopropyl-3-(2,6-difluoro-3,5-dimethoxyphenyl)-2-oxo-1,2,3,4-tetrahydropyrido[4,3-d]pyrimidin-7-yl)methyl)acrylamide] |
|  | < 10 | > 200 | > 200 | > 200 |  | C=CC(=O)NCc1cc2c(cn1)CN(c1c(F)c(OC)cc(OC)c1F)C(=O)N2CCOC [Example 11, N-((3-(2,6-difluoro-3,5-dimethoxyphenyl)-1-(2-methoxyethyl)-2-oxo-1,2,3,4-tetrahydropyrido[4,3-d]pyrimidin-7-yl)methyl)acrylamide] |
|  | < 10 | > 200 | > 200 | > 200 |  | C=CC(=O)NCc1cc2c(cn1)CN(c1c(F)c(OC)cc(OC)c1F)C(=O)N2CCC [Example 12, N-((3-(2,6-difluoro-3,5-dimethoxyphenyl)-2-oxo-1-propyl-1,2,3,4-tetrahydropyrido[4,3-d]pyrimidin-7-yl)methyl)acrylamide] |
|  | < 10 |  | 30 to 200 |  |  | C=CC(=O)NCc1cc2c(cn1)CN(c1c(F)c(OC)cc(OC)c1F)C(=O)N2CC1CC1 [Example 13, N-((1-(cyclopropylmethyl)-3-(2,6-difluoro-3,5-dimethoxyphenyl)-2-oxo-1,2,3,4-tetrahydropyrido[4,3-d]pyrimidin-7-yl)methyl)acrylamide] |
|  | < 10 | > 200 | > 200 | > 200 |  | C=CC(=O)NCc1cc2c(cn1)CN(c1c(F)c(OC)cc(OC)c1F)C(=O)N2CC(F)F [Example 14, N-((3-(2,6-difluoro-3,5-dimethoxyphenyl)-1-(2,2-difluoroethyl)-2-oxo-1,2,3,4-tetrahydropyrido[4,3-d]pyrimidin-7-yl)methyl)acrylamide] |
|  | < 10 | > 200 | > 200 | > 200 |  | C=CC(=O)NCc1cc2c(cn1)CN(c1c(F)c(OC)cc(OC)c1F)C(=O)N2C(C)C [Example 15, N-((3-(2,6-difluoro-3,5-dimethoxyphenyl)-1-isopropyl-2-oxo-1,2,3,4-tetrahydropyrido[4,3-d]pyrimidin-7-yl)methyl)acrylamide] |
|  |  |  | 30 to 200 |  | 10 to 30 | C=CC(=O)NCc1cc2c(cn1)CN(c1c(F)c(OC)cc(OC)c1F)C(=O)N2Cc1cccc(F)c1 [Example 16, N-((3-(2,6-difluoro-3,5-dimethoxyphenyl)-1-(3-fluorobenzyl)-2-oxo-1,2,3,4-tetrahydropyrido[4,3-d]pyrimidin-7-yl)methyl)acrylamide] |
|  |  | > 200 | > 200 | > 200 | 10 to 30 | C=CC(=O)NCc1cc2c(cn1)CN(c1c(F)c(OC)cc(OC)c1F)C(=O)N2Cc1cccnc1 [Example 17, N-((3-(2,6-difluoro-3,5-dimethoxyphenyl)-2-oxo-1-(pyridin-3-ylmethyl)-1,2,3,4-tetrahydropyrido[4,3-d]pyrimidin-7-yl)methyl)acrylamide] |
|  | < 10 |  | 30 to 200 |  |  | C=CC(=O)NCc1cc2c(cn1)CN(c1c(F)c(OC)cc(OC)c1F)C(=O)N2Cc1cnn(C)c1 [Example 18, N-((3-(2,6-difluoro-3,5-dimethoxyphenyl)-1-((1-methyl-1H-pyrazol-4-yl)methyl)-2-oxo-1,2,3,4-tetrahydropyrido[4,3-d]pyrimidin-7-yl)methyl)acrylamide] |
|  | < 10 | > 200 | > 200 | > 200 |  | C=CC(=O)NCc1cc2c(cn1)CN(c1c(F)c(OC)cc(OC)c1F)C(=O)N2C[C@H]1CCOC1 [Example 19, (R)—N-((3-(2,6-difluoro-3,5-dimethoxyphenyl)-2-oxo-1-((tetrahydrofuran-3-yl)methyl)-1,2,3,4-tetrahydropyrido[4,3-d]pyrimidin-7-yl)methyl)acrylamide] |
|  |  |  |  |  | 10 to 30 | C=CC(=O)NCc1cc2c(cn1)CN(c1c(F)c(OC)cc(OC)c1F)C(=O)N2C1CCOCC1 [Example 23, N-((3-(2,6-difluoro-3,5-dimethoxyphenyl)-2-oxo-1-(tetrahydro-2H-pyran-4-yl)-1,2,3,4-tetrahydropyrido[4,3-d]pyrimidin-7-yl)methyl)acrylamide] |
|  | < 10 |  | 30 to 200 |  |  | C=CC(=O)NCc1cc2c(cn1)CN(c1c(F)c(OC)cc(OC)c1F)C(=O)N2C1CCCC1 [Example 28, N-((1-cyclopentyl-3-(2,6-difluoro-3,5-dimethoxyphenyl)-2-oxo-1,2,3,4-tetrahydropyrido[4,3-d]pyrimidin-7-yl)methyl)acrylamide] |
|  | < 10 | > 200 | 30 to 200 |  |  | C=CC(=O)NCc1cc2c(cn1)CN(c1c(F)c(OC)cc(OC)c1F)C(=O)N2CC(C)C [Example 29, N-((3-(2,6-difluoro-3,5-dimethoxyphenyl)-1-isobutyl-2-oxo-1,2,3,4-tetrahydropyrido[4,3-d]pyrimidin-7-yl)methyl)acrylamide] |
|  | < 10 | > 200 | 30 to 200 |  |  | C=CC(=O)NCc1cc2c(cn1)CN(c1c(F)c(OC)cc(OC)c1F)C(=O)N2CC1CCC1 [Example 30, N-((1-(cyclobutylmethyl)-3-(2,6-difluoro-3,5-dimethoxyphenyl)-2-oxo-1,2,3,4-tetrahydropyrido[4,3-d]pyrimidin-7-yl)methyl)acrylamide] |
|  | < 10 |  | > 200 | > 200 |  | C=CC(=O)NCc1cc2c(cn1)CN(c1c(F)c(OC)cc(OC)c1F)C(=O)N2CC1CCN(C(=O)OC)CC1 [Example 33, methyl 4-((7-(acrylamidomethyl)-3-(2,6-difluoro-3,5-dimethoxyphenyl)-2-oxo-3,4-dihydropyrido[4,3-d]pyrimidin-1(2H)-yl)methyl)piperidine-1-carboxylate] |

| Compound | IC50 (FGFR4; read-out: FGFR4 IC50, pre-incubated for 5 to 10 minutes, ATP 600 uM) [nM] | IC50 (FGFR4; [1]) [nM] | IC50 (FGFR3) [nM] | IC50 (FGFR1) [nM] | IC50 (FGFR2) [nM] | IC50 (FGFR4) [nM] |
| --- | --- | --- | --- | --- | --- | --- |
| C=CC(=O)NCc1cc2c(cn1)CN(c1c(F)c(OC)cc(OC)c1F)C(=O)N2c1ccccc1 [Example 6, N-((3-(2,6-difluoro-3,5-dimethoxyphenyl)-2-oxo-1-phenyl-1,2,3,4-tetrahydropyrido[4,3-d]pyrimidin-7-yl)methyl)acrylamide] |  |  | > 200 | > 200 | > 200 | 10 to 30 |

Reference: patent publication US9890156B2, “Bicyclic heterocycles as FGFR4 inhibitors” (Incyte Corporation, priority 2015, dated 2018)
